Consider four molecules from patent US8664246B2, “Substituted pyridines, and use thereof as GSK3 inhibitors” (Bayer Intellectual Property GmbH, priority 2008, dated 2014).

pIC50: −log10 of the molar value.

In the experiment the target is T1, GSK3β (Homo sapiens, UniProt P49841).
T1 construct: purchased Upstate 14-306
T1 sequence (P49841 whole entry): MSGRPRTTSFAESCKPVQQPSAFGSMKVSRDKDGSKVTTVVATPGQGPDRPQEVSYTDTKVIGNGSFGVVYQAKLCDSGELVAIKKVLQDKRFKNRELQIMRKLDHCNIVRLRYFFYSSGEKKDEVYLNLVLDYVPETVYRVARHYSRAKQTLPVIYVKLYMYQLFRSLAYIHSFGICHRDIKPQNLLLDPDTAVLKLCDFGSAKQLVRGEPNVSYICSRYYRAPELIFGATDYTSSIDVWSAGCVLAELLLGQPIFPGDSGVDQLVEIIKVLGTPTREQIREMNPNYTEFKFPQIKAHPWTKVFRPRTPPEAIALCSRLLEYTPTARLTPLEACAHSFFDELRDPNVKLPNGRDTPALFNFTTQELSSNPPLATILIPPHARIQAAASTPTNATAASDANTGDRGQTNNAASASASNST
The experiment can be described thus: In vitro biochemical GSK3β inhibition assay (pyruvate kinase/lactate dehydrogenase-coupled, NADH fluorescence). The following applies: 5 nM GSK3β, 40 μM GSK3β substrate GSM, 50 μM ATP, 30° C. for 2 hours. On the procedure: The inhibitory activity of active substances is determined in a biochemical assay. The ingredients required for this purpose are mixed in a black 384-well microtitre plate with transparent base (from Greiner, catalogue number 781092). The ingredients required for each well of the 384-well microtitre plate are 5 nM GSK3β (from Upstate, catalogue number 14-306), 40 μM GSK3β substrate GSM (sequence H-RRRPASVPPSPSLSRHS-(pS)-HQRR, from Upstate, catalogue number 2-533), 30 μM nicotinamide adenine dinucleotide NADH (Roche Diagnostics, catalogue number 10107735), 50 μM adenosine triphosphate ATP (from Sigma, catalogue number A7966), 2 mM phosphoenolpyruvate (from Roche, catalogue number 128112), and approx. 1 U/ml pyruvate kinase and approx. 1 U/ml lactate dehydrogenase, which are present together in a stock formulation (from Roche, catalogue number 10737291001, suspension with approx. 450 U/ml pyruvate kinase activity, approx. 450 U/ml lactate dehydrogenase activity in […] ammonium sulphate solution pH 6). 1 unit of pyruvate kinase converts 1 μmol of phosphoenolpyruvate to pyruvate per minute at pH 7.6 and 37° C., and 1 unit of lactate dehydrogenase reduces 1 μmol of pyruvate to lactate per minute at pH 7.5 and 37° C. The reaction buffer required, in which the biochemical reaction proceeds, consists of 50 mM Trizma hydrochloride Tris-HCl pH: 7.5 (from Sigma, catalogue number T3253), 5 mM magnesium chloride MgCl2 (from Sigma, catalogue number M8266), 0.2 mM DL-dithiothreitol DTT (from Sigma, catalogue number D9779), 2 mM ethylenediamine ether tetraacid EDTA (from Sigma, catalogue number E6758), 0.01% Triton X-100 (from Sigma, catalogue number T8787) and 0.05% bovine serum albumin BSA (from Sigma, catalogue number B4287).
Active substances are dissolved in dimethyl sulphoxide DMSO (from Sigma, catalogue number D8418) in a concentration of 10 mM. Active substances are added in serial concentrations of 10 μM, 1 μM, 0.1 μM, 0.01 μM, 0.001 μM, 0.0001 μM, 0.00001 μM, 0.000001 μM to the mixtures of the biochemical reaction. As control, dimethyl sulphoxide is added instead of substance in a final concentration of 0.1%.
The reaction is incubated at 30° C. for 2 hours and then the resulting fluorescence is measured in a Tecan Safire-XFLUOR4 instrument, version V4.50 (serial number 12901300283) with the specifications: measurement mode—fluorescence measured from below, excitation wavelength 340 nm, emission wavelength 465 nm, excitation slit width 5 nm, emission slit width 5 nm, gain mode 120, delay 0 μs, number of light flashes per measurement 3, and an integration time of 40 μs.
The activity of the active substances is calculated in relation to these 0% and 100%.
`N#Cc1ccc(-c2ccc(Cl)cc2Cl)nc1N1CCCC(Nc2ccc(C(=O)C(F)(F)F)c(N)n2)C1` (single isomer, unassigned) [Example Ent-B-2, 2-(3-{[6-amino-5-(trifluoroacetyl)pyridin-2-yl]amino}piperidin-1-yl)-6-(2,4-dichlorophenyl)pyridine-3-carbonitrile] had a pIC50 of 8.30. Turning to `COc1ccccc1-c1ccc(C(=O)N2CCN(C(C)C)CC2)c(N2CCCC(Nc3ccc(C(=O)C(F)(F)F)c(N)n3)C2)n1` (single isomer, unassigned) [Example Ent-B-12, 1-[2-amino-6-({1-[6-(2-methoxyphenyl)-3-{[4-(propan-2-yl)-piperazin-1-yl]carbonyl}pyridin-2-yl]piperidin-3-yl}amino)pyridin-3-yl]-2,2,2-trifluoroethanone], the pIC50 is 8.20. The result for `N#Cc1ccc(NC2CCCN(c3nc(-c4ccc(Cl)cc4Cl)ccc3C#N)C2)nc1N` (stereo not shown) [Example 6, 2-Amino-6-({1-[3-cyano-6-(2,4-dichlorophenyl)pyridin-2-yl]piperidin-3-yl}amino)-pyridine-3-carbonitrile] reads 7.59; that for `N#Cc1ccc(NC2CCCN(c3nc(-c4ccc(Cl)cc4Cl)ccc3C#N)C2)nc1` (stereo not shown) [Example 7, 2-{3-[(5-Cyanopyridin-2-yl)amino]piperidin-1-yl}-6-(2,4-dichlorophenyl)pyridine-3-carbonitrile], 7.92.
